Read-outs that look alike come from different tables or passages of the source.
Legend:
[1] = system: HL-60 cell; set-up: method as in PMID 6572492; details: cited from earlier work
[2] = system: VDR; details: cited from earlier work; for IC50: literature values, read-out: VDR Affinity IC50
[3] = system: VDR; details: literature values, cited from earlier work; for EC50: read-out: Transcriptional Activity EC50
[4] = system: VDR; details: antagonist activity for 1; read-out: Antagonistic Activity IC50; cited from earlier work
[5] = system: CYP24A1 expression in HaCaT cells; set-up: method as in PMID 17325131, PMID 24773565; details: cited from earlier work
[6] = system: CYP24A1 expression in intestine-derived HCT116 cells; set-up: method as in PMID 17325131; details: cited from earlier work
[7] = system: VDR; assay: VDR affinity, previously reported; assay type: binding
[8] = system: human dedifferentiated fat (DFAT) cells; assay: Osteogenic differentiation assay: ALP activity in human DFAT cells; assay type: cell-based; details: osteogenic medium, 100 nM, 7 days, natural hormone 1 = 100%
Experimental: Mature adipocytes from the adipose tissue of mammals such as humans and rodents can be dedifferentiated into pluripotent cells using ceiling culture. Dedifferentiated fat (DFAT) cells have potential applications in both regenerative medicine and injury healing, as well as mesenchymal stem cells, embryonic stem cells, and induced pluripotent stem cells. The osteogenic activity of vitamin D derivatives was assessed based on alkaline phosphatase (ALP) activity.
Samples of human subcutaneous adipose tissue were obtained from patients who underwent surgery in the Department of Pediatric Surgery at Nihon University Itabashi Hospital (Tokyo, Japan). The patients gave their written informed consent, and the Ethics Committee of Nihon University School of Medicine approved this study. We prepared dedifferentiated fat (DFAT) cells using the ceiling culture method, as described previously. Briefly, the adipose tissue (approximately 1 g) was cut into small pieces and digested with a 0.1% type I collagenase solution (Koken Co., Ltd., Tokyo, Japan). […] The cells that adhered to the upper surface of the flasks were cultured for conversion to dedifferentiated fat cells. […] Cells at passages 2–4 were used for differentiation experiments.
Cells were grown to confluency in 24-well plates and incubated for a week in DMEM containing 10% FBS, 100 nM dexamethasone (Merk), 10 mM β-glycerophosphate (Merk), and […] L-ascorbic acid-2-phosphate (Merk), with 100 nM of each compound. The induction medium was replaced on day 4. The alkaline phosphatase (ALP) activity in the cell lysates was determined on day 7 with a lab assay ALP kit (Fujifilm wako). The total protein content was determined with the BCA protein assay kit (Thermo Fisher Scientific). ALP levels were normalized to the total protein content.

[9] = set-up: method as in PMID 26613420; details: versus natural hormone 1; cited from earlier work

| Compound | IC50 [2] | Transcriptional Activity % Efficacy of That of 1 [3] | EC50 [3] | IC50 [4] | CYP24A1 expression compared to 1 [5] | further results |
| --- | --- | --- | --- | --- | --- | --- |
| C=C1/C(=C\C=C2/CCC[C@]3(C)[C@@H]([C@H](C)CCC(F)(F)C(C)(C)O)CC[C@@H]23)C[C@H](O)C[C@H]1O [24F2-1,25(OH)2D3, 24, 24-difluoro-1α, 25-dihydroxyvitamin D3] |  |  |  |  |  | activity in HL-60 cell differentiation versus natural metabolite (1) [1]: four to seven times more activity than natural metabolite (1) |
| C[C@H](/C=C/C[C@H](O)C12CC3CC(CC(C3)C1)C2)[C@H]1CC[C@H]2/C(=C/C=C3C[C@@H](O)C[C@H](O)C3)CCC[C@]12C [AD47] | 5 nM | 17% | 300 nM | 400 nM | 50% | CYP24A1 expression compared to 1 [6]: 75% |
| C=C1[C@H](O)CC(=C/C=C2\CCC[C@]3(C)[C@@H]([C@H](C)/C=C/C[C@H](O)C45CC6CC(CC(C6)C4)C5)CC[C@@H]23)C[C@H]1O [ADNY93] | 0.1 nM | 17% | 1 nM | 1.2 nM |  | VDR affinity, times that of AD47 (2) ([7]; effect of exocyclic methylene at C-2, values of Table 1): 50 times |
| C=C1[C@H](O)CC(=C/C=C2\CCC[C@]3(C)[C@@H]([C@H](C)CC#C[C@@H](O)C45CC6CC(CC(C6)C4)C5)CC[C@@H]23)C[C@H]1O [ADTK1] | 0.5 nM | 81% |  |  | less than 50% | ALP activity [8]: 45.6%; VDR affinity, % of that of 1 ([2]; relative to 1,25(OH)2D3 (1)): 90% |
| C=C1[C@H](O)CC(=C/C=C2\CCC[C@]3(C)[C@@H]([C@H](C)CC#C[C@H](O)C45CC6CC(CC(C6)C4)C5)CC[C@@H]23)C[C@H]1O [ADTK2] | 12 nM | > 38% | 6.6 nM |  |  | times less potent than 5b (25S) ([7]; 25R versus 25S epimer, values of ref 42): 24 times |
| C=C1[C@H](O)CC(=C/C=C2\CCC[C@]3(C)[C@@H](C#CC#C[C@@H](O)C45CC6CC(CC(C6)C4)C5)CC[C@@H]23)C[C@H]1O [ADYW2] | 5 nM | 86% | 1.5 nM |  |  | stability in MG63 cells [9]: more stable than natural hormone 1 |

Reference: PMC10377034, “Syntheses of 25-Adamantyl-25-alkyl-2-methylidene-1α,25-dihydroxyvitamin D3 Derivatives with Structure–Function Studies of Antagonistic and Agonistic Active Vitamin D Analogs” (Biomolecules, 2023)
